Reference: PubChem BioAssay (NCI)
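Each compound was tested at five concentrations against cells in 96-well plates for 48 hours. GI50 marks 50% less growth. TGI: concentration producing complete growth inhibition.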

Columns and labels:
Assay in all cases: NCI-60 cell line screen, 48 h
786-0 renal = test system: 786-0 renal
A498 renal = test system: A498 renal
A549 NSCLC = test system: A549 NSCLC
ACHN renal = test system: ACHN renal
CAKI-1 renal = test system: CAKI-1 renal
CCRF-CEM leukemia = test system: CCRF-CEM leukemia
COLO 205 colon = test system: COLO 205 colon
DLD-1 colon = test system: DLD-1 colon
DMS 114 small cell lung = test system: DMS 114 small cell lung
DMS 273 small cell lung = test system: DMS 273 small cell lung
EKVX NSCLC = test system: EKVX NSCLC
HCC-2998 colon = test system: HCC-2998 colon
HCT-116 colon = test system: HCT-116 colon
HCT-15 colon = test system: HCT-15 colon
HL-60(TB) leukemia = test system: HL-60(TB) leukemia
HOP-18 NSCLC = test system: HOP-18 NSCLC
HOP-62 NSCLC = test system: HOP-62 NSCLC
HOP-92 NSCLC = test system: HOP-92 NSCLC
HT29 colon = test system: HT29 colon
IGROV1 ovarian = test system: IGROV1 ovarian
K-562 leukemia = test system: K-562 leukemia
KM12 colon = test system: KM12 colon
KM20L2 colon = test system: KM20L2 colon
LOX IMVI melanoma = test system: LOX IMVI melanoma
LXFL 529 NSCLC = test system: LXFL 529 NSCLC
M14 melanoma = test system: M14 melanoma
M19-MEL melanoma = test system: M19-MEL melanoma
MALME-3M melanoma = test system: MALME-3M melanoma
MOLT-4 leukemia = test system: MOLT-4 leukemia
NCI-H226 lung = test system: NCI-H226 lung
NCI-H23 lung = test system: NCI-H23 lung
NCI-H460 lung = test system: NCI-H460 lung
NCI-H522 lung = test system: NCI-H522 lung
OVCAR-3 ovarian = test system: OVCAR-3 ovarian
OVCAR-4 ovarian = test system: OVCAR-4 ovarian
OVCAR-5 ovarian = test system: OVCAR-5 ovarian
OVCAR-8 ovarian = test system: OVCAR-8 ovarian
RPMI-8226 leukemia = test system: RPMI-8226 leukemia
RXF 393 renal = test system: RXF 393 renal
RXF-631 renal = test system: RXF-631 renal
SF-268 CNS = test system: SF-268 CNS
SF-295 CNS = test system: SF-295 CNS
SF-539 CNS = test system: SF-539 CNS
SK-MEL-2 melanoma = test system: SK-MEL-2 melanoma
SK-MEL-28 melanoma = test system: SK-MEL-28 melanoma
SK-MEL-5 melanoma = test system: SK-MEL-5 melanoma
SK-OV-3 ovarian = test system: SK-OV-3 ovarian
SN12C renal = test system: SN12C renal
SNB-19 CNS = test system: SNB-19 CNS
SNB-75 CNS = test system: SNB-75 CNS
SNB-78 CNS = test system: SNB-78 CNS
SR leukemia = test system: SR leukemia
SW-620 colon = test system: SW-620 colon
TK-10 renal = test system: TK-10 renal
U251 CNS = test system: U251 CNS
UACC-257 melanoma = test system: UACC-257 melanoma
UACC-62 melanoma = test system: UACC-62 melanoma
UO-31 renal = test system: UO-31 renal

## CCOc1ccccc1N=C(NC(=O)CC)SC
786-0 renal
  GI50: > 100 µM
  TGI: > 100 µM
A498 renal
  GI50: > 100 µM
  TGI: > 100 µM
A549 NSCLC
  GI50: > 100 µM
  TGI: > 100 µM
ACHN renal
  GI50: > 100 µM
  TGI: > 100 µM
CAKI-1 renal
  GI50: > 100 µM
  TGI: > 100 µM
CCRF-CEM leukemia
  GI50: > 10 µM
  TGI: > 100 µM
COLO 205 colon
  TGI: > 10 µM
DLD-1 colon
  GI50: > 10 µM
  TGI: > 100 µM
DMS 114 small cell lung
  TGI: > 10 µM
DMS 273 small cell lung
  GI50: > 100 µM
  TGI: > 100 µM
EKVX NSCLC
  GI50: > 100 µM
  TGI: > 100 µM
HCC-2998 colon
  GI50: > 100 µM
  TGI: > 100 µM
HCT-116 colon
  GI50: > 10 µM
  TGI: > 100 µM
HCT-15 colon
  GI50: > 10 µM
  TGI: > 100 µM
HL-60(TB) leukemia
  GI50: > 100 µM
  TGI: > 100 µM
HOP-18 NSCLC
  TGI: > 10 µM
HOP-62 NSCLC
  GI50: > 100 µM
  TGI: > 100 µM
HOP-92 NSCLC
  TGI: > 10 µM
HT29 colon
  GI50: > 100 µM
  TGI: > 100 µM
IGROV1 ovarian
  GI50: > 100 µM
  TGI: > 100 µM
K-562 leukemia
  GI50: > 100 µM
  TGI: > 100 µM
KM12 colon
  GI50: > 100 µM
  TGI: > 100 µM
KM20L2 colon
  GI50: > 100 µM
  TGI: > 100 µM
LOX IMVI melanoma
  GI50: > 100 µM
  TGI: > 100 µM
LXFL 529 NSCLC
  GI50: > 100 µM
  TGI: > 100 µM
M14 melanoma
  GI50: > 100 µM
  TGI: > 100 µM
M19-MEL melanoma
  GI50: > 100 µM
  TGI: > 100 µM
MALME-3M melanoma
  GI50: > 10 µM
  TGI: > 100 µM
MOLT-4 leukemia
  GI50: > 10 µM
  TGI: > 100 µM
NCI-H226 lung
  GI50: > 100 µM
  TGI: > 100 µM
NCI-H23 lung
  GI50: > 10 µM
  TGI: > 100 µM
NCI-H460 lung
  GI50: > 100 µM
  TGI: > 100 µM
NCI-H522 lung
  GI50: > 100 µM
  TGI: > 100 µM
OVCAR-3 ovarian
  GI50: > 100 µM
  TGI: > 100 µM
OVCAR-4 ovarian
  GI50: > 10 µM
  TGI: > 100 µM
OVCAR-5 ovarian
  TGI: > 10 µM
OVCAR-8 ovarian
  GI50: > 10 µM
  TGI: > 100 µM
RPMI-8226 leukemia
  GI50: > 10 µM
  TGI: > 100 µM
RXF 393 renal
  GI50: > 100 µM
  TGI: > 100 µM
RXF-631 renal
  GI50: > 100 µM
  TGI: > 100 µM
SF-268 CNS
  GI50: > 100 µM
  TGI: > 100 µM
SF-295 CNS
  GI50: > 100 µM
  TGI: > 100 µM
SF-539 CNS
  GI50: > 100 µM
  TGI: > 100 µM
SK-MEL-2 melanoma
  GI50: > 10 µM
  TGI: > 100 µM
SK-MEL-28 melanoma
  GI50: > 100 µM
  TGI: > 100 µM
SK-MEL-5 melanoma
  TGI: > 10 µM
SK-OV-3 ovarian
  TGI: > 10 µM
SN12C renal
  GI50: > 10 µM
  TGI: > 100 µM
SNB-19 CNS
  GI50: > 100 µM
  TGI: > 100 µM
SNB-75 CNS
  GI50: > 10 µM
  TGI: > 100 µM
SNB-78 CNS
  TGI: > 10 µM
SR leukemia
  GI50: > 100 µM
  TGI: > 100 µM
SW-620 colon
  GI50: > 100 µM
  TGI: > 100 µM
TK-10 renal
  TGI: > 10 µM
U251 CNS
  GI50: > 100 µM
  TGI: > 100 µM
UACC-257 melanoma
  GI50: > 100 µM
  TGI: > 100 µM
UACC-62 melanoma
  GI50: > 100 µM
  TGI: > 100 µM
UO-31 renal
  GI50: > 100 µM
  TGI: > 100 µM
